Results taken from ChEMBL document CHEMBL4196212, “Targeting Cytochrome P450 (CYP) 1B1 Enzyme with Four Series of A-Ring Substituted Estrane Derivatives: Design, Synthesis, Inhibitory Activity, and Selectivity” (J Med Chem, 2018).

Experiments:
[1] = biological target: T1, CYP1B1 (Homo sapiens, UniProt Q16678); assay: Inhibition of recombinant human CYP1B1 at 3 uM incubated for 45 mins using 7-ethyl-O-resorufin substrate in presence of NADPH regenerating system by fluorescence based ethoxyresorufin-O-deethylase assay; conditions: recombinant human CYP1B1, probe 7-ethyl-O-resorufin (7-ethoxyresorufin)
T1 sequence (Q16678 whole entry): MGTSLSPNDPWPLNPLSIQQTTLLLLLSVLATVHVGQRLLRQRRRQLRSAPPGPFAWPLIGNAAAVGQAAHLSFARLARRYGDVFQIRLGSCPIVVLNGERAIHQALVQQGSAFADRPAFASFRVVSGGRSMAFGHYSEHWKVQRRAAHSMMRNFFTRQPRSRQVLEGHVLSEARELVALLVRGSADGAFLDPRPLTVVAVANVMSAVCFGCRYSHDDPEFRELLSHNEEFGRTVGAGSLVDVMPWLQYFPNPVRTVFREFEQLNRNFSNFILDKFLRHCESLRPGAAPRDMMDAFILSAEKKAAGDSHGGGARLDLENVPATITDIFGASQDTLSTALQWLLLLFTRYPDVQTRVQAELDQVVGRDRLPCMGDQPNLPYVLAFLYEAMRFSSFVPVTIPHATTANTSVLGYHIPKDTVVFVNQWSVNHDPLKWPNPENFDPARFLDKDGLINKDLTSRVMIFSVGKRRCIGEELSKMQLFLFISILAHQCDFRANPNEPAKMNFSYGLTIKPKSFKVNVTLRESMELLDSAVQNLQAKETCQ

[2] = biological target: T2, CYP1A1 (Homo sapiens, UniProt P04798); assay: Inhibition of recombinant human CYP1A1 at 0.3 uM incubated for 25 mins using 7-ethyl-O-resorufin substrate in presence of NADPH regenerating system by fluorescence based ethoxyresorufin-O-deethylase assay; assay type: ADME; conditions: recombinant human CYP1A1, probe 7-ethyl-O-resorufin (7-ethoxyresorufin)
T2 sequence (P04798 whole entry): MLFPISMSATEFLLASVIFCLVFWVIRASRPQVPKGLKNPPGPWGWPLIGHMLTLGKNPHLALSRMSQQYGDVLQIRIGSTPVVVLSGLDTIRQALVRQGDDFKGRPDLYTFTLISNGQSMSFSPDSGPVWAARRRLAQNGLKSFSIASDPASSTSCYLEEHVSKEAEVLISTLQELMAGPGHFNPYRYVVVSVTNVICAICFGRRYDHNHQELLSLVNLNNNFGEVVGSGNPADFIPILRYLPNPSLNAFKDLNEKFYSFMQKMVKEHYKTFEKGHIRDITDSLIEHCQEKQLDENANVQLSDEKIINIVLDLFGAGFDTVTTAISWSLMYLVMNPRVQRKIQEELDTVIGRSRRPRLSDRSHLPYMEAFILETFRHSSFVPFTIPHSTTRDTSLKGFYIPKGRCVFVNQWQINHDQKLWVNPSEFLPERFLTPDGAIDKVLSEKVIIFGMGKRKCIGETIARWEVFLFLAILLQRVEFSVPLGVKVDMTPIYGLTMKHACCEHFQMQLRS

[3] = biological target: T1, CYP1B1; assay: Inhibition of recombinant human CYP1B1 at 0.3 uM incubated for 45 mins using 7-ethyl-O-resorufin substrate in presence of NADPH regenerating system by fluorescence based ethoxyresorufin-O-deethylase assay; conditions: recombinant human CYP1B1, probe 7-ethyl-O-resorufin (7-ethoxyresorufin)
[4] = biological target: T2, CYP1A1; assay: Inhibition of recombinant human CYP1A1 at 3 uM incubated for 25 mins using 7-ethyl-O-resorufin substrate in presence of NADPH regenerating system by fluorescence based ethoxyresorufin-O-deethylase assay; assay type: ADME; conditions: recombinant human CYP1A1, probe 7-ethyl-O-resorufin (7-ethoxyresorufin)
[5] = biological target: T3, Cytochrome P450 1A1 (Homo sapiens, UniProt P04798); assay: Inhibition of recombinant human CYP1A1 incubated for 25 mins using 7-ethyl-O-resorufin substrate in presence of NADPH regenerating system by fluorescence based ethoxyresorufin-O-deethylase assay; assay type: ADME
T3 sequence (P04798 whole entry): T2 sequence (P04798 whole entry)

[6] = organism: Homo sapiens; assay: Selectivity index, ratio of IC50 for inhibition of recombinant human CYP1A1 to IC50 for inhibition of recombinant human CYP1B1
[7] = biological target: T4, Cytochrome P450 1B1 (Homo sapiens, UniProt Q16678); assay: Inhibition of recombinant human CYP1B1 incubated for 45 mins using 7-ethyl-O-resorufin substrate in presence of NADPH regenerating system by fluorescence based ethoxyresorufin-O-deethylase assay
T4 sequence (Q16678 whole entry): T1 sequence (Q16678 whole entry)

| SMILES | inhibition at 0.75 h, 3 µM [1] [%] | inhibition at 25 min, 0.3 µM [2] [%] | inhibition at 0.75 h, 0.3 µM [3] [%] | inhibition at 25 min, 3 µM [4] [%] | IC50 [5] [nM] | Ratio IC50 [6] | IC50 [7] [nM] |
| --- | --- | --- | --- | --- | --- | --- | --- |
| C[C@]12CC[C@@H]3c4cc(-c5ccc(Cl)cc5)c(O)cc4CC[C@H]3[C@@H]1CCC2=O | 101 | 9 | 79 | 5 | – | – | – |
| COc1cccc(-c2cc3c(cc2O)CC[C@@H]2[C@@H]3CC[C@]3(C)C(=O)CC[C@@H]23)c1 | 81 | – | 48 | – | – | – | – |
| C[C@]12CC[C@@H]3c4cc(-c5cccnc5)c(O)cc4CC[C@H]3[C@@H]1CCC2=O | 90 | – | – | – | – | – | – |
| C[C@]12CC[C@@H]3c4cc(-c5ccccc5)c(O)cc4CC[C@H]3[C@@H]1CCC2=O | 101 | 5 | 69 | 16 | – | – | – |
| C[C@]12CC[C@@H]3c4cc(-c5ccc(F)c(F)c5)c(O)cc4CC[C@H]3[C@@H]1CCC2=O | 100 | 1 | 77 | 15 | – | – | – |
| COc1ccc(-c2cc3c(cc2OC)CC[C@@H]2[C@@H]3CC[C@]3(C)[C@@H](OC)CC[C@@H]23)cc1 | 20 | 1 | 11 | 5 | – | – | – |
| C[C@]12CC[C@@H]3c4cc(-c5ccc(O)cc5)c(O)cc4CC[C@H]3[C@@H]1CCC2=O | 30 | – | 19 | – | – | – | – |
| COc1ccc(-c2cc3c(cc2OC)CC[C@@H]2[C@@H]3CC[C@@]3(C)[C@H]2CC[C@]3(C)O)cc1 | 46 | 2 | 8 | 6 | – | – | – |
| C[C@]12CC[C@@H]3c4cc(-c5cccc(Cl)c5)c(O)cc4CC[C@H]3[C@@H]1CC[C@@H]2O | 100 | 16 | 91 | 51 | – | – | – |
| C[C@]12CC[C@@H]3c4cc(-c5ccncc5)c(O)cc4CC[C@H]3[C@@H]1CC[C@@H]2O | 102 | 5 | – | 14 | 3900 | 16 | 240 |
| C[C@]12CC[C@@H]3c4cc(-c5ccccc5)c(O)cc4CC[C@H]3[C@@H]1CC[C@@H]2O | 101 | 9 | 82 | 45 | – | – | – |
| C[C@]12CC[C@@H]3c4ccc(S(C)(=O)=O)cc4CC[C@H]3[C@@H]1CC[C@@H]2O | 5 | – | 0 | – | – | – | – |
| C#C[C@]1(O)CC[C@H]2[C@@H]3CCc4cc(OC)c(-c5ccc(OC)cc5)cc4[C@H]3CC[C@@]21C | 55 | 4 | 6 | 9 | – | – | – |
| CSc1ccc2c(c1)CC[C@@H]1[C@@H]2CC[C@]2(C)C(=O)CC[C@@H]12 | 34 | – | 14 | – | – | – | – |
| C[C@]12CC[C@@H]3c4cc(-c5cccc(N)c5)c(O)cc4CC[C@H]3[C@@H]1CCC2=O | 55 | – | 36 | – | – | – | – |
| C[C@]12CC[C@@H]3c4cc(-c5ccc(F)cc5)c(O)cc4CC[C@H]3[C@@H]1CCC2=O | 101 | 2 | 71 | 8 | – | – | – |
| C[C@]12CC[C@@H]3c4cc(-c5cccc(F)c5)c(O)cc4CC[C@H]3[C@@H]1CCC2=O | 101 | 3 | 67 | 23 | – | – | – |
| C[C@]12CC[C@@H]3c4cc(-c5cccnc5)c(O)cc4CC[C@H]3[C@@H]1CC[C@@H]2O | 100 | 53 | – | 77 | – | – | – |
| COc1ccc(-c2cc3c(cc2O)CC[C@@H]2[C@@H]3CC[C@]3(C)C(=O)CC[C@@H]23)cc1 | 103 | 8 | 95 | 18 | – | – | – |
| C[S+]([O-])c1ccc2c(c1)CC[C@@H]1[C@@H]2CC[C@]2(C)[C@@H](O)CC[C@@H]12 (stereo partly drawn) | 25 | – | 10 | – | – | – | – |
| C[C@]12CC[C@@H]3c4ccc(SCc5cccnc5)cc4CC[C@H]3[C@@H]1CCC2=O | 87 | 9 | 48 | 36 | – | – | – |
| C[C@]12CC[C@@H]3c4cc(-c5cccc(O)c5)c(O)cc4CC[C@H]3[C@@H]1CCC2=O | 103 | 10 | 92 | 39 | – | – | – |
| C[C@]12CC[C@@H]3c4cc(-c5ccncc5)c(O)cc4CC[C@H]3[C@@H]1CCC2=O | 55 | – | – | – | – | – | – |

Second part, led by results:

| inhibition at 0.75 h, 3 µM [1] [%] | inhibition at 25 min, 0.3 µM [2] [%] | inhibition at 0.75 h, 0.3 µM [3] [%] | inhibition at 25 min, 3 µM [4] [%] | SMILES | IC50 [5] [nM] | Ratio IC50 [6] | IC50 [7] [nM] |
| --- | --- | --- | --- | --- | --- | --- | --- |
| 79 | 1 | 38 | 4 | COc1ccc(-c2cc3c(cc2OC)CC[C@@H]2[C@@H]3CC[C@]3(C)C(=O)CC[C@@H]23)cc1 | – | – | – |
| 100 | 2 | 92 | 47 | C[C@]12CC[C@@H]3c4cc(-c5ccc(F)c(F)c5)c(O)cc4CC[C@H]3[C@@H]1CC[C@@H]2O | – | – | – |
| 26 | – | 5 | – | CSc1ccc2c(c1)CC[C@@H]1[C@@H]2CC[C@]2(C)[C@@H](O)CC[C@@H]12 | – | – | – |
| 101 | 12 | 88 | 48 | C[C@]12CC[C@@H]3c4cc(-c5cccc(F)c5)c(O)cc4CC[C@H]3[C@@H]1CC[C@@H]2O | – | – | – |
| 100 | 14 | 97 | 51 | COc1ccc(-c2cc3c(cc2O)CC[C@@H]2[C@@H]3CC[C@]3(C)[C@@H](O)CC[C@@H]23)cc1 | – | – | – |
| 100 | 10 | 96 | 57 | C[C@]12CC[C@@H]3c4cc(-c5cccc(O)c5)c(O)cc4CC[C@H]3[C@@H]1CC[C@@H]2O | – | – | – |
| 101 | 30 | – | 75 | O=c1cc(-c2ccccc2)oc2c1ccc1ccccc12 [ALPHA-NAPHTHOFLAVONE] | 2700 | – | – |
| 100 | 5 | 74 | 11 | C[C@]12CC[C@@H]3c4cc(-c5cccc(Cl)c5)c(O)cc4CC[C@H]3[C@@H]1CCC2=O | – | – | – |
| 7 | – | 7 | – | C[C@]12CC[C@@H]3c4ccc(S(C)(=O)=O)cc4CC[C@H]3[C@@H]1CCC2=O | – | – | – |
| 99 | 12 | 96 | 63 | C[C@]12CC[C@@H]3c4cc(-c5ccc(Cl)cc5)c(O)cc4CC[C@H]3[C@@H]1CC[C@@H]2O | – | – | – |
| 57 | – | 16 | – | C[S+]([O-])c1ccc2c(c1)CC[C@@H]1[C@@H]2CC[C@]2(C)C(=O)CC[C@@H]12 (stereo partly drawn) | – | – | – |
